Test results published in PMC10509173, “Deep learning driven de novo drug design based on gastric proton pump structures” (Communications Biology, 2023).
“And” between values parts separate entries of the source, which are not always exact repeats. Equal entries are not always repeated. One block for each compound: values may come before it.

Experiments:
[1] = biological target: T1, H+,K+-ATPase (Sus scrofa, UniProt P19156); assay: K+-dependent ATPase assay, double reciprocal plot and Ki estimation; format: biochemical, pig; design: H^+,K^+-ATPase-enriched membrane fractions were purified from pig stomach; from tissue; host or cells: pig stomach (gastric membrane fractions); reciprocal K+-stimulated ATPase activity, Lineweaver-Burk raw data: unit not given here; details: for reciprocal K+-stimulated ATPase activity, Lineweaver-Burk raw data: replicate values
T1 sequence (P19156 2-1034 limits assumed): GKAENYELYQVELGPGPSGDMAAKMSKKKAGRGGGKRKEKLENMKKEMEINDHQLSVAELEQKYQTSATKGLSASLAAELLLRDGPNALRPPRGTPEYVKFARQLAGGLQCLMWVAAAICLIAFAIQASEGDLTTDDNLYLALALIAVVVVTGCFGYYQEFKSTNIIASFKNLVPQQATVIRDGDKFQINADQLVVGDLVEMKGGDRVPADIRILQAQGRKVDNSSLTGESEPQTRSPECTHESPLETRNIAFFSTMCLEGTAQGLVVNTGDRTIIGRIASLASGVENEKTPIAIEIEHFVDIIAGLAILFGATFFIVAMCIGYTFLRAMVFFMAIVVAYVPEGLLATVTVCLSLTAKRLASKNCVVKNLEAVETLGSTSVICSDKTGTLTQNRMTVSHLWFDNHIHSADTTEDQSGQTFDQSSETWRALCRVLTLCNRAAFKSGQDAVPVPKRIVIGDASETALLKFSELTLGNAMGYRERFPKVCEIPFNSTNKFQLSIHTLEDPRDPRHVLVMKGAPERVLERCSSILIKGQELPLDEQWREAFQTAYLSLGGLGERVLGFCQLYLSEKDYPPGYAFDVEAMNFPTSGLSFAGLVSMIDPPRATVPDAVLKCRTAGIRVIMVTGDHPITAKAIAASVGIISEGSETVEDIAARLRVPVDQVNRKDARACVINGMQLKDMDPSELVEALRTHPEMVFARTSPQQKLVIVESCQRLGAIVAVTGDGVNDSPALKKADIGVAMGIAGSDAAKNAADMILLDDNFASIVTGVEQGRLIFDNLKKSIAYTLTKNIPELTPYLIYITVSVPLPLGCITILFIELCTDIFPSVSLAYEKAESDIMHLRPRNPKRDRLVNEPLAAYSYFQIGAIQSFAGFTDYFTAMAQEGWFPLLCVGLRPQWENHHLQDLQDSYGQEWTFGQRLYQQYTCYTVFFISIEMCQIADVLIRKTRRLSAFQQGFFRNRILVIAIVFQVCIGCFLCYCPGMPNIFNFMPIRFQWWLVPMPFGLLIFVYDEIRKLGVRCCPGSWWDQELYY
T1 sequence (P18434 whole entry partner): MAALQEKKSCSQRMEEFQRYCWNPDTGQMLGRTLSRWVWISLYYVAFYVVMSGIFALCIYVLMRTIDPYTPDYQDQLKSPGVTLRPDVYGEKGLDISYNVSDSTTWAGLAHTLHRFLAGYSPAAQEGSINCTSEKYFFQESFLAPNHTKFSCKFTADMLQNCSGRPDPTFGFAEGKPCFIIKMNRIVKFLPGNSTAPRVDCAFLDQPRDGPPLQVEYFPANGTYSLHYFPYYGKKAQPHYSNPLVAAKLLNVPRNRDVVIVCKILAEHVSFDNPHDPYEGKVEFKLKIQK
Text: Data measured from 96-well plate contained triplicates of four different sets of K^+-dependent ATPase assays in the absence or presence of three different concentrations of synthesized compounds. Data were corrected for background values in the absence of K^+ at each compound concentration, and plot them against the double reciprocal axes in Supplementary Fig. 5. Data were also fitted by using simultaneous nonlinear regression as described previously to estimate their Ki values.

[2] = biological target: T1, H+,K+-ATPase; assay: Dose-dependent inhibition of H+,K+-ATPase activity, membrane fractions; details: for H+,K+-ATPase activity, raw data of dose-dependent inhibition: single replicate values
[3] = [PCAB] -3.30103 (log, unit not given)
[4] = [PCAB] -3.52288 (log, unit not given)
[5] = [PCAB] -4 (log, unit not given)
[6] = [PCAB] -4.30103 (log, unit not given)
[7] = [PCAB] -4.52288 (log, unit not given)
[8] = [PCAB] -5 (log, unit not given)
[9] = [PCAB] -5.52288 (log, unit not given)
[10] = [PCAB] -6 (log, unit not given)
[11] = [PCAB] -6.30103 (log, unit not given)
[12] = [PCAB] -7 (log, unit not given)
[13] = [PCAB] -8 (log, unit not given)
[14] = [PCAB] -11 (log, unit not given; possibly placeholder for no compound)

Compound: CNCC#CCn1ccc2cccc(C#Cc3ccc(C)cc3)c21 [DQ-15]
IC50 [2]: 49.5 ± 4.9 µM
H+,K+-ATPase activity, raw data of dose-dependent inhibition [2, 3]: -1.23 and -0.26 and -1.44 and 5.07 and -1.8 and 2.8
H+,K+-ATPase activity, raw data of dose-dependent inhibition [2, 4]: 9.09 and 3.72 and 0.29 and -0.76 and -0.99 and -0.84
H+,K+-ATPase activity, raw data of dose-dependent inhibition [2, 5]: 11.93 and 13.25 and 13.98 and 12.44 and 11.99
H+,K+-ATPase activity, raw data of dose-dependent inhibition [2, 6]: 53.33 and 67.11 and 32 and 29.38 and 36.06 and 36.79
H+,K+-ATPase activity, raw data of dose-dependent inhibition [2, 7]: 62.91 and 87.02 and 102.29 and 102.11 and 98.15 and 100.59
H+,K+-ATPase activity, raw data of dose-dependent inhibition [2, 8]: 104.78 and 109.76 and 109.66 and 114.82 and 111.02 and 110.28
H+,K+-ATPase activity, raw data of dose-dependent inhibition [2, 9]: 106.28 and 113.44 and 111.13 and 112.65 and 113.7 and 115.05
H+,K+-ATPase activity, raw data of dose-dependent inhibition [2, 10]: 99.17 and 105.14 and 103.4 and 101.49 and 105.23 and 103.02
H+,K+-ATPase activity, raw data of dose-dependent inhibition [2, 11]: 96.59 and 101.3 and 102.53 and 104.37 and 103.52 and 105.02
H+,K+-ATPase activity, raw data of dose-dependent inhibition [2, 12]: 93.78 and 100.85 and 99.97 and 100.06 and 104.3 and 100.32
H+,K+-ATPase activity, raw data of dose-dependent inhibition [2, 13]: 98.75 and 101.8 and 99.85 and 100.74 and 97.88 and 98.55
H+,K+-ATPase activity, raw data of dose-dependent inhibition [2, 14]: 102.57 and 105.77 and 99.66 and 98.21 and 98.11 and 102.51

Compound: CNCc1ccc(OCc2c(Cl)cccc2OCc2ccccc2)cc1 [DQ-19]
IC50 [2]: 3.52 ± 0.22 µM
H+,K+-ATPase activity, raw data of dose-dependent inhibition [2, 3]: -0.65 and -0.09 and -0.18 (2×) and 0.39 and -0.03
H+,K+-ATPase activity, raw data of dose-dependent inhibition [2, 4]: 1.38 and 2.32 and 2.04 and 1.91 and 2.46 and 2.13
H+,K+-ATPase activity, raw data of dose-dependent inhibition [2, 5]: 10.36 and 10.46 and 8.18 and 7.73 and 7.75 and 7.91
H+,K+-ATPase activity, raw data of dose-dependent inhibition [2, 6]: 16.41 and 15.72 and 6.63 and 6.46 and 5.99 and 5.93
H+,K+-ATPase activity, raw data of dose-dependent inhibition [2, 7]: 18.62 (2×) and 17.28 and 17.05 and 16.78 and 16.42
H+,K+-ATPase activity, raw data of dose-dependent inhibition [2, 8]: 27.04 and 27.03 and 26.28 and 26.11 and 26 and 25.46
H+,K+-ATPase activity, raw data of dose-dependent inhibition [2, 9]: 56.8 and 57.52 and 52.1 and 50.99 and 52.47 and 50.98
H+,K+-ATPase activity, raw data of dose-dependent inhibition [2, 10]: 77.41 and 78.78 and 71.45 and 74.76 and 72.12 and 73.47
H+,K+-ATPase activity, raw data of dose-dependent inhibition [2, 11]: 84.8 and 85.13 and 83.98 and 84.02 and 82.9 and 83.28
H+,K+-ATPase activity, raw data of dose-dependent inhibition [2, 12]: 91.5 and 92.21 and 96.4 and 96.06 and 98.84 and 94.11
H+,K+-ATPase activity, raw data of dose-dependent inhibition [2, 13]: 95.21 and 97 and 100.13 and 98.68 and 100.43 and 97.42
H+,K+-ATPase activity, raw data of dose-dependent inhibition [2, 14]: 95.94 and 97.66 and 99.42 and 99.81 and 100.11 and 99.03

Compound: CNCc1ccc(OCc2ccccc2OCc2ccc(Cl)cc2)cc1 [DQ-21]
IC50 [2]: 0.28 ± 0.02 µM
H+,K+-ATPase activity, raw data of dose-dependent inhibition [2, 3]: -1.36 and -1 and -1.49 and 3.72 and -1.45 and 1.58
H+,K+-ATPase activity, raw data of dose-dependent inhibition [2, 4]: 0.39 and 0.54 and 0.08 and 0.18 and 0.41 and 0.55
H+,K+-ATPase activity, raw data of dose-dependent inhibition [2, 5]: 3.33 and 3.13 and 3.68 and 3.03 and 3.2 and 3.37
H+,K+-ATPase activity, raw data of dose-dependent inhibition [2, 6]: 4.45 and 4.77 and 4.44 and 4.84 and 4.43 and 4.67
H+,K+-ATPase activity, raw data of dose-dependent inhibition [2, 7]: 6.47 and 6.44 and 6.31 and 6.43 and 6.29 and 6.56
H+,K+-ATPase activity, raw data of dose-dependent inhibition [2, 8]: 7.76 and 7.75 and 7.99 (2×) and 7.89 and 7.77
H+,K+-ATPase activity, raw data of dose-dependent inhibition [2, 9]: 11.96 and 12.26 and 11.83 and 11.89 and 11.45 and 12.14
H+,K+-ATPase activity, raw data of dose-dependent inhibition [2, 10]: 23.55 and 22.68 and 22.58 and 21.83 and 22.75 and 23.52
H+,K+-ATPase activity, raw data of dose-dependent inhibition [2, 11]: 36.33 and 33.31 and 34.67 and 35.15 and 34.9 and 34.74
H+,K+-ATPase activity, raw data of dose-dependent inhibition [2, 12]: 76.22 and 75.51 and 71.53 and 74.65 and 69.37
H+,K+-ATPase activity, raw data of dose-dependent inhibition [2, 13]: 101.03 and 99.43 and 98.88 and 100.2 and 98.66 and 98.58
H+,K+-ATPase activity, raw data of dose-dependent inhibition [2, 14]: 102.52 and 101.98 and 100.28 and 101.48 and 100.07 and 102.84

The remaining compounds from weak to strong by IC50 [2], led by results:

IC50 [2]: 89.4 ± 13.5 µM
H+,K+-ATPase activity, raw data of dose-dependent inhibition [2, 3]: 24.42 and 42.17
H+,K+-ATPase activity, raw data of dose-dependent inhibition [2, 4]: 44.41 and 66.92
H+,K+-ATPase activity, raw data of dose-dependent inhibition [2, 5]: 87.71 and 67.55
Compound: CNCC#CCn1ccc2cccc(C#Cc3cccc(Cl)c3)c21 [DQ-16]
H+,K+-ATPase activity, raw data of dose-dependent inhibition [2, 6]: 103.26 and 71.7 and 101.95 and 107.11 and 107.49 and 103.62
H+,K+-ATPase activity, raw data of dose-dependent inhibition [2, 7]: 107.4 and 104.96 and 100.44 and 100.8 and 99.65 and 99.6
H+,K+-ATPase activity, raw data of dose-dependent inhibition [2, 8]: 105.07 and 103.28 and 102.18 and 95.06 and 104.24 and 100.65
H+,K+-ATPase activity, raw data of dose-dependent inhibition [2, 9]: 112.46 and 113.5 and 115.83 and 115.26 and 112.62 and 114.01
H+,K+-ATPase activity, raw data of dose-dependent inhibition [2, 10]: 106.69 and 106.05 and 103.52 and 103.99 and 105.16 and 107.1
H+,K+-ATPase activity, raw data of dose-dependent inhibition [2, 11]: 101.16 and 99.6 and 102.96 and 104.58 and 100.87 and 100.34
H+,K+-ATPase activity, raw data of dose-dependent inhibition [2, 12]: 95.95 and 99.26 and 100.97 and 100.31 and 101.14 and 100.94
H+,K+-ATPase activity, raw data of dose-dependent inhibition [2, 13]: 95.83 and 94.95 and 90.34 and 101.71 and 99.53 and 101.3
H+,K+-ATPase activity, raw data of dose-dependent inhibition [2, 14]: 95.82 and 93.84 and 98.4 and 100.56 and 99.28 and 103.27

reciprocal K+-stimulated ATPase activity, Lineweaver-Burk raw data ([1]; compound concentration 5, 1/KCl 0.05 (units not given)): 0.0047 and 0.0046 and 0.005
reciprocal K+-stimulated ATPase activity, Lineweaver-Burk raw data ([1]; compound concentration 5, 1/KCl 0.1 (units not given)): 0.0059 and 0.0058 (2×)
reciprocal K+-stimulated ATPase activity, Lineweaver-Burk raw data ([1]; compound concentration 5, 1/KCl 0.125 (units not given)): 0.0059 (2×) and 0.006
reciprocal K+-stimulated ATPase activity, Lineweaver-Burk raw data ([1]; compound concentration 5, 1/KCl 0.2 (units not given)): 0.0059 (2×) and 0.0061
reciprocal K+-stimulated ATPase activity, Lineweaver-Burk raw data ([1]; compound concentration 5, 1/KCl 0.5 (units not given)): 0.0114 and 0.0113 and 0.0109
reciprocal K+-stimulated ATPase activity, Lineweaver-Burk raw data ([1]; compound concentration 5, 1/KCl 1 (units not given)): 0.0177 and 0.0175 and 0.0166
reciprocal K+-stimulated ATPase activity, Lineweaver-Burk raw data ([1]; compound concentration 5, 1/KCl 2 (units not given)): 0.0312 and 0.0335 and 0.0294
reciprocal K+-stimulated ATPase activity, Lineweaver-Burk raw data ([1]; compound concentration 10, 1/KCl 0.05 (units not given)): 0.0052
reciprocal K+-stimulated ATPase activity, Lineweaver-Burk raw data ([1]; compound concentration 10, 1/KCl 0.1 (units not given)): 0.0066 and 0.0067 and 0.0069
reciprocal K+-stimulated ATPase activity, Lineweaver-Burk raw data ([1]; compound concentration 10, 1/KCl 0.125 (units not given)): 0.0073 and 0.0075 and 0.0074
reciprocal K+-stimulated ATPase activity, Lineweaver-Burk raw data ([1]; compound concentration 10, 1/KCl 0.2 (units not given)): 0.0079 and 0.0078 and 0.0077
reciprocal K+-stimulated ATPase activity, Lineweaver-Burk raw data ([1]; compound concentration 10, 1/KCl 0.5 (units not given)): 0.0173 and 0.016 and 0.018
reciprocal K+-stimulated ATPase activity, Lineweaver-Burk raw data ([1]; compound concentration 10, 1/KCl 1 (units not given)): 0.0258 (2×) and 0.029
reciprocal K+-stimulated ATPase activity, Lineweaver-Burk raw data ([1]; compound concentration 10, 1/KCl 2 (units not given)): 0.0498 and 0.0514 and 0.0558
reciprocal K+-stimulated ATPase activity, Lineweaver-Burk raw data ([1]; compound concentration 40, 1/KCl 0.05 (units not given)): 0.0101 and 0.0102 and 0.0088
reciprocal K+-stimulated ATPase activity, Lineweaver-Burk raw data ([1]; compound concentration 40, 1/KCl 0.1 (units not given)): 0.0146 and 0.0158 and 0.0151
reciprocal K+-stimulated ATPase activity, Lineweaver-Burk raw data ([1]; compound concentration 40, 1/KCl 0.125 (units not given)): 0.0175 and 0.0157 and 0.013
reciprocal K+-stimulated ATPase activity, Lineweaver-Burk raw data ([1]; compound concentration 40, 1/KCl 0.2 (units not given)): 0.0176 and 0.0181 and 0.0182
reciprocal K+-stimulated ATPase activity, Lineweaver-Burk raw data ([1]; compound concentration 40, 1/KCl 0.5 (units not given)): 0.0393 and 0.036 and 0.0314
reciprocal K+-stimulated ATPase activity, Lineweaver-Burk raw data ([1]; compound concentration 40, 1/KCl 1 (units not given)): 0.0754 and 0.0762 and 0.0737
reciprocal K+-stimulated ATPase activity, Lineweaver-Burk raw data ([1]; compound concentration 40, 1/KCl 2 (units not given)): 0.1646 and 0.1689 and 0.18
Ki ([1]; double reciprocal plot analysis, K+-competitive, read-out: estimated inhibition constant Ki): 4.65 µM
inhibition mode ([1]; double reciprocal plot, versus K+): typical competitive inhibition pattern
IC50 [2]: 39.9 ± 3.3 µM
Compound: CNCC#CCOCc1cc(Cl)ccc1-c1ccc(Cl)cc1 [DQ-02]
H+,K+-ATPase activity, raw data of dose-dependent inhibition [2, 3]: -3.48 and -2.88 and 2.99 and 4.4 and 2.96 and 5.89
H+,K+-ATPase activity, raw data of dose-dependent inhibition [2, 4]: 0.86 and 1.16 and 4.19 and 5.19 and 4.89 and 4.75
H+,K+-ATPase activity, raw data of dose-dependent inhibition [2, 5]: 42.01 and 43.89 and 31.47 and 31.59 and 28.65 and 29.6
H+,K+-ATPase activity, raw data of dose-dependent inhibition [2, 6]: 44.62 and 46.8 and 48.6 and 46.17 and 46.72 and 37.34
H+,K+-ATPase activity, raw data of dose-dependent inhibition [2, 7]: 56.61 and 55.53 and 56.64 and 57.99 and 58.21 and 59.24
H+,K+-ATPase activity, raw data of dose-dependent inhibition [2, 8]: 76.31 and 74.65 and 77.66 and 80.01 and 78.54 and 73.73
H+,K+-ATPase activity, raw data of dose-dependent inhibition [2, 9]: 94.23 and 90.64 and 95.59 and 93.89 and 93 and 95.88
H+,K+-ATPase activity, raw data of dose-dependent inhibition [2, 10]: 97.7 and 98.02 and 94.2 and 97.49 and 93.51 and 99.15
H+,K+-ATPase activity, raw data of dose-dependent inhibition [2, 11]: 97.98 and 96.67 and 103.79 and 104.81 and 106.59 and 107.52
H+,K+-ATPase activity, raw data of dose-dependent inhibition [2, 12]: 99.57 and 99.45 and 98.18 and 98.05 and 96.63 and 99.09
H+,K+-ATPase activity, raw data of dose-dependent inhibition [2, 13]: 97.5 and 100.13 and 97.23 and 97.51 and 96.21 and 102.69
H+,K+-ATPase activity, raw data of dose-dependent inhibition [2, 14]: 99.85 and 98.59 and 101.41 and 99.82 and 98.22 and 99.87
